Patent US10973228B2, “Eco-friendly non-aqueous antimicrobial composition comprising hinokitiol with 1,3-propanediol and/or sorbitan caprylate” (ISP INVESTMENTS INC., priority 2012, dated 2021)
In brackets after ≈: the same amount, converted by molar mass.

Key:
Format in all cases: cell-based
[1] = system: Burkholderia cepacia (DSM 7288); assay: MIC study on agar, bacterial strain; settings: DSM7288, ppm of antimicrobial active (Hinokitiol), Caso-Agar pH 7.3, 2 to 3 weeks at 20 to 25° C.
Protocol: (§1) The individual concentrations of the test-product were weighed into sterile Erlenmeyer flasks and mixed with 100 ml of an appropriate growth media at a maximum temperature of about 40 to 50° C. Equal amounts of mixtures were poured into four Petri dishes. After cooling, the Petri dishes were inoculated with the respective standard strains. During the experiment, the Petri dishes were kept for 2 to 3 weeks at room temperature of about 20 to 25° C. in the dark. The following two different types of culture media were employed for the present studies: • i. Bacteria-Agar: merchantable Caso—Agar pH-Value: 7.3±0.2 • ii. Fungi/Yeast-Agar:merchantable Malt extract—Agar (3%) pH-Value: 5.6±0.2
(§2) After 2nd and 3rd weeks macroscopic evaluations were performed, the ratings are as follows:
(§3) The formulation under examination is considered to be efficient if the following conditions are duly fulfilled i.e. (i) after 2-3 weeks no growth of the tested culture is visible; (ii) with rising concentration of the tested formulation, the germ growth should macroscopically be reduced until it is not visible any more.

[2] = system: Escherichia coli (DSM 1576); assay: MIC study on agar, bacterial strain; settings: for reduction of MIC level of hinokitiol: against Escherichia coli
Protocol: as §1, §2, §3

[3] = system: Pseudomonas aeruginosa (DSM 1128); assay: MIC study on agar, bacterial strain; settings: DSM1128, ppm of antimicrobial active (Hinokitiol), Caso-Agar pH 7.3, 2 to 3 weeks at 20 to 25° C.
Protocol: as §1, §2, §3

[4] = system: Staphylococcus aureus (DSM 799); assay: MIC study on agar, bacterial strain
Protocol: as §1, §2, §3

[5] = system: Aspergillus brasiliensis (DSM 1988); assay: MIC study on agar, fungal strain; settings: DSM1988, ppm of antimicrobial active (Hinokitiol), Malt extract-Agar (3%) pH 5.6, 2 to 3 weeks at 20 to 25° C.
Protocol: as §1, §2, §3

[6] = system: Trichoderma viride (DSM 63064); assay: MIC study on agar, fungal strain; settings: DSM63064, ppm of antimicrobial active (Hinokitiol), Malt extract-Agar (3%) pH 5.6, 2 to 3 weeks at 20 to 25° C.
Protocol: as §1, §2, §3

**Q.** What does the source list for CC(C)c1cccc(O)c(=O)c1 [Hinokitiol, 2-Hydroxy-6-propan-2-ylcyclohepta-2,4,6-trien-1-one]?
**A.** MIC [1]: 500 µg/mL (≈ 3040 µM); MIC ([2]; DSM1576, Escherichia coli, ppm of antimicrobial active (Hinokitiol), Caso-Agar pH 7.3, 2 to 3 weeks at 20 to 25° C.): 100 µg/mL (≈ 609 µM); reduction of MIC level of hinokitiol ([2]; in presence of 1,3-propanediol (Zemea)): 50%; reduction of MIC level of hinokitiol ([2]; in presence of sorbitan caprylate (Velsan SC)): 50%; MIC [3]: 500 µg/mL (≈ 3040 µM); MIC ([4]; DSM799, Staphylococcus aureus, ppm of antimicrobial active (Hinokitiol), Caso-Agar pH 7.3, 2 to 3 weeks at 20 to 25° C.): 100 µg/mL (≈ 609 µM); reduction of MIC level of hinokitiol ([4]; in presence of 1,3-propanediol (Zemea), against Staphylococcus aureus): 50%; MIC [5]: 100 µg/mL (≈ 609 µM); MIC [6]: 100 µg/mL (≈ 609 µM)
